Assay results: patent publication US5204471A, “α-trifluoromethyl-substituted, saturated bicyclic amines” (Bayer Aktiengesellschaft, priority 1991, dated 1993)
pIC50: −log10 of the molar value.

Key:
HIV = HIV test in a cell culture (syncytia formation in infected PBLs); assay type: cell-based; conditions: Human immunodeficiency virus 1, Lymphocyte, 72 h; HIV-infected normal human blood lymphocytes (PBLs), evaluated day 3 to 6 after infection; read-out: IC50 value (PBL), 50% suppression of virus-induced syncytia
Description: HIV test in a cell culture with slight modifications according to Pauwels et al., Journal of Virological Methods 20, pages 309-321 (1988).
Normal human blood lymphocytes (PBLs) were concentrated via Ficoll-Hypaque and stimulated with phytohaemagglutinin (90 μg/ml) and interleukin-2 (40 U/ml) in RPMI 1640, 20% fetal calf serum. For infection with the infectious HIV, the PBLs were pelletised, and the cell pellet was then suspended in 1 ml of HIV virus adsorption solution and incubated at 37° C. for 1 hour.
The virus adsorption solution was centrifuged, and the infected cell pellet was taken up in growth medium in such a manner that 1×10^5 cells were present per ml. The cells infected in this manner were pipetted into the wells of 96-well microtitre plates in such a manner that each well contained 1×10^4 cells.
The first vertical row of the microtitre plate only contained growth medium and cells which were not infected but otherwise had been treated in the same manner as described above (cell control). The second vertical row of the microtitre plate only contained HIV-infected cells (virus control) in growth medium. […]
The test batches were incubated at 37° C. until the formation of syncytia typical for HIV occurred in the untreated virus control (between day 3 and 6 after infection), which formation was then evaluated under a microscope. […]

HIV protease = biological target: T1, HIV protease (Human immunodeficiency virus type 1 group M subtype B, UniProt P04585); assay: HIV-specific protease enzyme test (cleavage of synthetic Gag peptide, RP HPLC); assay type: biochemical; conditions: purified HIV protease, HIV-1, synthetic peptide substrate; read-out: IC50 value (concentration causing 50% inhibition of the protease activity)
T1 construct: purified HIV protease
Description: HIV-specific protease enzyme test according to J. Hansen, S. Billich, T. Schulze, S. Sukrow and K. Molling, EMBO Journal, Vol. 7, No. 6, pages […] (1988).
This test was carried out by incubation of purified HIV protease with synthetic peptide which imitates a cleavage site in the Gag precursor protein and represents an in vivo cleavage point of the HIV protease. The resulting cleavage products of the synthetic peptide were analysed by reversed-phase high performance liquid chromatography (RP HPLC). The compound obtained according to Example 11 gave an IC50 value of 5×10^-8 with HIV-1. The IC50 value indicates the concentration of the substance causing 50% inhibition of the protease activity under the test conditions.

- pIC50 (HIV protease): 7.30
SMILES: CC(C)[C@H](NC(=O)[C@H](Cc1cccc2ccccc12)CS(=O)(=O)C(C)(C)C)C(=O)N[C@@H](Cc1ccccc1)C(O)CN1CCC2CCCCC2C1C(F)(F)F (some centres unmarked) [Example 11]
- pIC50 (HIV): 5.60
